Reference: article PMC4009755, “High-Throughput Screen of Natural Product Libraries for Hsp90 Inhibitors” (Biology, 2014)
Where two headings read alike, the source gives them in different places.

Tests used:
[1] = molecular target: Hsp90 chaperone machinery present in rabbit reticulocyte lysate; test: Hsp90-dependent refolding of thermally denatured luciferase in rabbit reticulocyte lysate (high-throughput screen and titration); type: biochemical; conditions: for Inhibition of Hsp90-dependent refolding of luciferase in the initial screen: 12.5 µg/mL (Analyticon compounds 40 µM), Microsource screen used a cut-off of 70% inhibition
Description: Rabbit reticulocyte lysate, prepared by lysing one volume of packed reticulocytes in two volumes of deionized water, followed by centrifugation for twenty minutes at 15,000 × g, was purchased from Green Hectares (Oregon, WI, USA).
Recombinant luciferase from Promega was diluted to 0.5 mg/mL in buffer consisting of 25 mM Tricine–HCl (pH 7.8), 8 mM MgSO4, 0.1 mM EDTA, and 10 mg/mL acetylated BSA. Next, the solution was adjusted to include 10% glycerol and 1% Triton X-100. Finally, the luciferase solution was heated to ~41°. Once the activity of the luciferase reached ~1% of its initial value, the mixture was placed on ice, or flash frozen in liquid nitrogen and placed at −80° for storage.
To prepare the denatured luciferase for use in re-folding assays, 125 µL of the 0.5 mg/mL mixture was added into a 10 mL mixture containing 80 mM Tris HCl, pH 7.7, 8 mM Mg(OAc)2, 300 mM KCl, 12 mM ATP, and 20 mM creatine phosphate, and 0.8 mg/mL creatine phosphokinase.
The assay buffer, which contains the luciferase substrate luciferin, consisted of 75 mM Tricine-HCl, pH 7.8, 24 mM MgSO4, 300 µM EDTA, 2 mM DTT, 313 µM D-luciferin, 640 µM coenzyme A, 660 µM ATP, 150 mM KCl, 10% (v/v) Triton X-100, 20% (v/v) glycerol, and 3.5% DMSO.
The libraries were screened for compounds that inhibited the refolding of thermally denatured luciferase using a high-throughput assay carried out with a slight modification of the method previously described. Briefly, compounds were reconstituted in 100% DMSO. Stocks of compounds purchased from Microsource, TimTec, Biofocus and BioMol were reconstituted to a concentration of 1 mg/mL. The stocks were diluted 40-fold into nano-pure water with the compounds being used at a final concentration of 12.5 µg/mL for the assay. Analyticon compounds (0.2 µmol) were reconstituted to a concentration of 4 mM, and were used at a final concentration of 40 µM in the assay. Assays were performed in 96-well microplates. To each well was added 30 µL of the water/DMSO compound solution, 15 µL of the reticulocyte lysate preparation, and 15 µL of the luciferase reagent. The plates were agitated and then allowed to incubate at 25 °C for one to three hours. After the incubation, 60 µL of assay buffer containing luciferin was added to each well. The plates were then read in a Molecular Devices LMaxII^384 microplate reader, and luminescence was measured in relative light units, with an integration time of 10 s. Compounds that inhibited luciferase refolding by approximately fifty percent or greater were then titrated into a refolding reaction containing native luciferase, to eliminate false positive hits that were direct inhibitors of luciferase as previously described. Compounds were classified as a potential Hsp90 inhibitor if they inhibited luciferase refolding by 60% or greater and there was no inhibition of the activity of native luciferase at the compound’s IC50 (concentration of the compound that inhibits luciferase refolding by 50%).
The titrations were repeated twice. For a more accurate determination of the IC50s for the compounds studied in Section 3.2.1 of this manuscript, a two-fold […] series of the compounds were used in triplicate, with the experiment being repeated three times.

[2] = tested on: MCF7 breast cancer cells; test: Antiproliferation assay (MTS), MCF7 cells; type: cell-based; conditions: Homo sapiens
Description: MCF7 cells were grown in Gibco Dulbecco’s Modified Essential Medium, supplemented with non-essential amino acids, 2 mM glutamine, and 10% fetal bovine serum. Cells were seeded at 2,000 cells per well in clear 96-well plates containing 100 µL of media per well, and the cells were allowed to attach overnight. The next day, serial dilutions of compounds in DMSO or DMSO control was added to the wells. Cells were then incubated at 37 °C for 48 h. Cell viability was determined using the Promega Cell Titer 96 Aqueous One Solution Cell Proliferation Assay, which makes use of a soluble tetrazolium compound that is converted into a chromophore by living cells. After incubation with compounds, 20 µL of the assay substrate solution were added to the wells, and the plate was incubated at 37 °C for an additional hour. The plate was then read at absorbance at 490 nm using a Molecular Devices Versamax plate reader. Values are expressed as percent DMSO control. All experiments were done in triplicate.

[3] = tested on: heme-regulated eIF2α kinase (HRI); test: Hsp90-dependent maturation of the heme-regulated eIF2α kinase (HRI) in reticulocyte lysate; type: biochemical, rabbit; conditions: heme-deficient lysate, mobility shift on PAGE
Description: [^35S]-Labeled His-tagged HRI was translated by coupled transcription/translation for 20 min in TnT reticulocyte lysate at 30 °C. Drugs or DMSO vehicle control were then added. After an additional 10 min, the reactions (4 µL aliquots) were diluted into 28 µL volumes of heme-supplemented control lysate or heme-deficient lysate, containing the same respective drugs and DMSO vehicle control. The samples were allowed to incubate for another 40 min at 37 °C. The [^35S]-Labeled His-tagged HRI was then adsorbed from the reactions with NTA-Ni^2+ agarose resin for 1 h at 4 °C. The agarose resins were the washed four times total, in P50T, P100T 2X, and P50T again. SDS sample buffer was then added to the pellets, the samples boiled, and then separated on an 8% PAGE gel, and transferred to PVDF membrane. Membranes were dried and exposed to X-ray film for autoradiography.

[4] = tested on: Hsp90-dependent client proteins Cdk6, pAkt, Her2; Hsp90 and Hsp70 in MCF7 cells; test: Inhibitor-dependent depletion of Hsp90-dependent clients from MCF7 cells (Western blot); type: cell-based, human; conditions: 24 h
Description: MCF7 cells were grown to confluence in Advanced DMEM/F12 (1:1; Gibco) supplemented with L-glutamine (2 mM), streptomycin (500 µg/mL), and penicillin (100 units/mL) and re-seeded at 0.4 × 10^6 cells/well/2 mL. Cells were incubated in a humidified atmosphere (37 °C, 5% CO2) for 24 h and treated with varying concentrations of compound or 0.5 µM geldanamycin in DMSO (0.25% DMSO final concentration), or vehicle (DMSO) for 24 h. Cells were harvested in cold PBS and lysed using MPER (Thermo Scientific/Pierce, USA) supplemented with protease and phosphatase inhibitors (Roche Applied Science, USA) according to manufacturer’s directions. Lysates were clarified at 14,000 g for 15 min at 4 °C. Protein concentrations were determined using the Pierce BCA protein assay kit per the manufacturer’s instructions. Equal amounts of protein (15 μg) were electrophoresed under reducing conditions (10% acrylamide gels), transferred to PVDF, and immunoblotted with the corresponding antibody (Anti-pAkt, -Her2, and -Cdk6 antibodies were from Cell Signaling; anti-actin was from Santa Cruz Biotechnology; and anti-Hsp90 and -Hsp70 were from Enzo Lifesciences). Membranes were incubated with an appropriate horseradish peroxidase-labeled secondary antibody, developed with a chemiluminescent substrate, and visualized.

[5] = tested on: Plasmodium falciparum; parameters: method as in PMID 17913482; conditions: cited from earlier work
[6] = MCF7 cells, 48 h, MTS assay, read-out: IC50 MCF7 proliferation

## C=C1C(=O)O[C@@H]2C[C@@H](C)[C@@H]3C=CC(=O)[C@@]3(C)[C@@H](O)[C@H]12 [Compound 9, Helenalin]
[1]
  IC50: ~80 µM

## O=c1cc(-c2ccc(O)c(O)c2)oc2cc(O)cc(O)c12 [Compound 31, Luteolin]
[1]
  Inhibition of Hsp90-dependent refolding of luciferase in the initial screen: no inhibitory activity in one of the screens

## CC(C)=CCC[C@]1(C)C=Cc2c(O)c3c(c(CC=C(C)C)c2O1)O[C@]12C(=C[C@@H]4C[C@H]1C(C)(C)O[C@@]2(C/C=C(/C)C(=O)O)C4=O)C3=O [Compound 35, Gambogic acid]
[1]
  Inhibition of Hsp90-dependent refolding of luciferase in the initial screen: consistently identified as hits

## COc1cc(/C=C/C(=O)CC(=O)/C=C/c2ccc(O)c(OC)c2)ccc1O [Compound 40, Curcumin]
[1]
  Inhibition of Hsp90-dependent refolding of luciferase in the initial screen: consistently identified as hits

## CC(=O)c1c(O)c(C)c(O)c(Cc2c(O)c3c(c(C(=O)/C=C/c4ccccc4)c2O)OC(C)(C)C=C3)c1O [Compound 47, Rottlerin]
[2]; [6]
  IC50: 7 ± 3 µM
[1]
  IC50: ~60 µM
[1]; read-out: IC50 luciferase refolding
  IC50: 63 ± 5 µM
[3]; 100 µM
  Inhibition of Hsp90-dependent maturation of HRI: inhibited the maturation of HRI
[4]; varying concentrations
  Depletion of Hsp90 clients (Cdk6, pAkt, Her2): concentration-dependent depletion
  Expression of Hsp70: concentration-dependent increase
  Expression of Hsp90: None of the compounds increased the expression of Hsp90

## COC(=O)[C@]1(C)CC[C@]2(C)CC[C@]3(C)C4=CC=C5C(=CC(=O)C(O)=C5C)[C@]4(C)CC[C@@]3(C)[C@@H]2C1 [Compound 49, Celastrol methyl ester]
[1]
  IC50: ~2 µM

## CC(=O)O[C@@H]1C[C@@]2(C)[C@H](c3ccoc3)C[C@H]3O[C@]32[C@]2(C)C(=O)C(O)=C3C(C)(C)C(=O)C=C[C@]3(C)[C@@H]12 [Compound 50, Anthothecol]
[5]
  Activity against the growth of Plasmodium falciparum in erythrocytes: low micromolar activity
[2]; [6]
  IC50: 0.5 ± 0.06 µM
[1]; relative to the Hsp90 inhibitor gedunin, assay not specified
  Fold higher activity than gedunin: approximately 10 fold
[3]; 100 µM
  Inhibition of Hsp90-dependent maturation of HRI: inhibited the maturation of HRI
[4]; varying concentrations
  Depletion of Hsp90 clients (Cdk6, pAkt, Her2): concentration-dependent depletion
  Expression of Hsp70: concentration-dependent increase
  Expression of Hsp90: None of the compounds increased the expression of Hsp90

## CC1=CC(=O)c2c(O)cccc2C1=O [Compound 84, Plumbagin]
[1]
  Inhibition of Hsp90-dependent refolding of luciferase in the initial screen: consistently identified as hits

## C=C1CCC(O)CC1=CC=C1CCCC2(C)C1CCC2C(C)CCCC(C)C (centres unmarked) [Compound 98]
[1]
  IC50: ~60 µM

## COc1c2c3c4c(c(OC)c(=O)c5c(O)cc(OC)c(c6c(OC)cc(O)c(c1=O)c63)c54)[C@@H](C(C)=O)[C@@](C)(O)C2 [Compound 116, Hypocrellin A]
[1]
  IC50: 5 to 10 µM

## C=C(C)[C@@H](CC=C(C)C)C[C@@]12C[C@@H](CC=C(C)C)C(C)(C)[C@@](CC=C(C)C)(C(=O)C(C(=O)c3ccc(O)c(O)c3)=C1O)C2=O [Garcinol]
[2]; [6]
  IC50: 4 ± 0.6 µM
[3]; 100 µM
  Inhibition of Hsp90-dependent maturation of HRI: inhibited the maturation of HRI
[4]; varying concentrations
  Depletion of Hsp90 clients (Cdk6, pAkt, Her2): concentration-dependent depletion
  Expression of Hsp70: no effect
  Expression of Hsp90: None of the compounds increased the expression of Hsp90

## COc1cc(/C=C/C(=O)N2CCC=CC2=O)cc(OC)c1OC [Piplartine]
[2]; MCF7, 48 h, read-out: IC50 MCF7 proliferation (µM)
  IC50: 10 ± 3 µM
[3]; 100 µM
  Inhibition of Hsp90-dependent maturation of HRI: inhibited the maturation of HRI
[4]; varying concentrations
  Depletion of Hsp90 clients (Cdk6, pAkt, Her2): concentration-dependent depletion
  Expression of Hsp70: no effect
  Expression of Hsp90: None of the compounds increased the expression of Hsp90

## COC1=C2C[C@@H](C)C[C@H](OC)[C@H](O)[C@@H](C)/C=C(\C)[C@H](OC(N)=O)[C@@H](OC)/C=C\C=C(/C)C(=O)NC(=CC1=O)C2=O [geldanamycin, reference compound]
[3]; 20 µM
  Inhibition of Hsp90-dependent maturation of HRI: inhibited the maturation of HRI
[4]; 0.5 µM
  Expression of Hsp70: increase in the expression of Hsp70

## [Na+].[Na+].[O]=[Mo](=[O])([O-])[O-] [molybdate, sodium molybdate, reference compound]
[3]
  Inhibition of Hsp90-dependent maturation of HRI: inhibited the maturation of HRI

## CO[C@@H]1[C@@H](OC(N)=O)[C@@H](O)[C@H](Oc2ccc3c(O)c(NC(=O)c4ccc(O)c(CC=C(C)C)c4)c(=O)oc3c2C)OC1(C)C [novobiocin, reference compound]
[3]
  Inhibition of Hsp90-dependent maturation of HRI: inhibited the maturation of HRI

## L-Adrenaline [Compound 99]
[1]
  IC50: ~55 µM

## Tyrothricin [Compound 74]
[1]
  IC50: ~5 µM
